From US11536729B2, “Method of identifying novel protein aggregation inhibitors based on chemical kinetics” (Cambridge Enterprise Limited, priority 2016, dated 2022)

Columns and labels:
Assay type in all cases: biochemical
[1] = target: T1, Aβ42 (Homo sapiens, UniProt P05067); test: ThT-based Aβ42 aggregation kinetics under quiescent (unseeded) conditions; details: for ranking of efficacy within set: 2 μM Aβ42; for change of inhibitory activity relative to parent scaffold: structural comparison among RAR/RXR modulators
T1 construct: The recombinant Aβ (M1-42) peptide; made in house; host or cells: E. coli BL21 Gold (DE3)
Protocol: Solutions of monomeric peptides were prepared by dissolving the lyophilized Aβ42 peptide in 6 M GuHCl. Monomeric forms were purified from potential oligomeric species and salt using a Superdex 75 10/300 GL column (GE Healthcare) at a flowrate of 0.5 mL/min, and were eluted in 20 mM sodium phosphate buffer, pH 8 supplemented with 200 μM EDTA and 0.02% NaN3. The center of the peak was collected and the peptide concentration was determined from the absorbance of the integrated peak area using ε280=1400 l mol^−1 cm^−1. The obtained monomer was diluted with buffer to the desired concentration and supplemented with 20 μM Thioflavin T (ThT) from a 1 mM stock. All samples were prepared in low binding eppendorf tubes on ice using careful pipetting to avoid introduction of air bubbles. Each sample was then pipetted into multiple wells of a 96-well half-area, low-binding, clear bottom and PEG coating plate (Corning 3881), 80 μL per well.
We verified that the addition of 1% DMSO in the reaction mixture has no effect on Aβ42 aggregation.
(§1) Assays were initiated by placing the 96-well plate at 37° C. under quiescent conditions in a plate reader (Fluostar Omega, Fluostar Optima or Fluostar Galaxy, BMGLabtech, Offenburg, Germany). The ThT fluorescence was measured through the bottom of the plate with a 440 nm excitation filter and a 480 nm emission filter. The ThT fluorescence was followed for three repeats of each sample.
The time evolution of the total fibril mass concentration, M(t), is described by the following integrated rate law (30, 32)
(§2) [formula] where the kinetic parameters B±, C±, κ, κ∞ and ? are functions of the two ? combinations of the microscopic rate constants k+k2 and knk2, where kn, k+ and k2 are the primary nucleation, elongation and secondary nucleation rate constants, respectively.
The time evolution of the total fibril mass concentration, M(t), is described by the following integrated rate law
as §2, with “two” for “two ?”, “respectively. Aβ42 alone in 1% DMSO was first modeled to obtain the k+k2 and knk2 combined microscopic rate constants.” for “respectively.”
Target sequence in this assay (P05067 671-713): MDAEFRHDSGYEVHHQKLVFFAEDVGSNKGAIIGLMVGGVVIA
With the introduction of different small molecules, the aggregation process can be inhibited by one or more individual microscopic reactions. Microscopic rate constants k+k2 and knk2 were obtained in the presence of the molecules, and compared to the initial values of Aβ42 alone. This comparison allows one to understand which rate was mainly perturbed, as well as the potency of the compounds (by relative changes of their microscopic rates) with respect to each other.

[2] = target: T1, Aβ42; test: ThT Aβ42 aggregation kinetics with 10% pre-formed fibril seeds (elongation dominant); details: 2 μM Aβ42, 5-fold excess
Protocol: (§3) Samples were then collected from the wells into low-binding tubes and sonicated for 2 min in a sonicator bath at room temperature. Under the considered conditions (i.e. 4 μM Aβ42), the monomer concentration is negligible at equilibrium (31). The final concentration of fibrils, in monomer equivalents, was considered equal to the initial concentration of monomer. Fibrils were then added to freshly prepared monomer in order to reach either 5% or 10% fibrils final concentration.
as §1, with “sample. […]” for “sample.”
Target sequence in this assay (P05067 672-713 limits assumed): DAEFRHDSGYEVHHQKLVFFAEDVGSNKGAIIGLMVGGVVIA

[3] = target: T1, Aβ42; test: ThT Aβ42 aggregation kinetics with 1-5% pre-formed fibril seeds (surface-catalyzed secondary nucleation); details: 2 μM Aβ42, 1-5% seeds, 0.5-fold excess
Protocol: For the seeded experiments, preformed fibrils were prepared just prior to the experiment. Kinetic experiments were set up just as above for a […] Aβ42 samples in 20 mM sodium phosphate buffer, pH 8 with 200 μM EDTA, 0.02% NaN3 and 20 μM ThT. The ThT fluorescence was monitored for 3 hours to verify the formation of fibrils.
as §3
as §1, with “sample. […]” for “sample.”
Target sequence in this assay (P05067 672-713 limits assumed): as above
For the seeded experiments, preformed fibrils were prepared just prior to the experiment. […] The ThT fluorescence was monitored for 3 hours to verify the formation of fibrils. […]

SMILES | ranking of efficacy within set [1] | change of inhibitory activity relative to parent scaffold [1] | effect on Aβ42 aggregation of linker variants of bexarotene [1] | also measured
CC1(C)CCC(C)(C)c2cc(C3(c4ccc(C(=O)O)cc4)OCCO3)ccc21 [SR11237] |  |  | delayed the aggregation of Aβ42 to different extent | 
CCCCCOc1cc2c(cc1-c1cc(/C=C/C(=O)O)ccc1O)C(C)(C)CCC2(C)C [UVI3003] | most effective molecule within Set B |  |  | effect on aggregation kinetics / elongation with 10% fibril seeds [2]: no effect could be observed; decrease of rate of surface-catalyzed secondary nucleation (k2) [3]: 75%
CC1(C)CC=C(c2cnc3ccccc3c2)c2cc(C(=O)Nc3ccc(C(=O)O)cc3)ccc21 [BMS195614] |  | substantial increase in primary nucleation inhibitory activity |  | 
NCCCS(=O)(=O)O [tramiprosate] |  |  |  | effect on Aβ42 aggregation ([1]; even when present in 20-fold excess): no effects
CC1(C)C(=O)C(C)(C)c2cc(C(=O)Nc3ccc(C(=O)O)cc3)ccc21 [BMS753] |  |  |  | delay / effect on Aβ42 aggregation ([1]; 2 μM Aβ42, 3-fold excess): did not show any effect; effect on aggregation kinetics of Aβ42 ([1]; fold-excesses as high as 5): did not show any effect
CC1(C)CCC(C)(C)c2cc(NC(=O)c3ccc(C(=O)O)cc3)ccc21 [Tamibarotene] |  |  | delayed the aggregation of Aβ42 to different extent | 

Now from value to molecule, other results behind:

ranking of efficacy within set [1] | change of inhibitory activity relative to parent scaffold [1] | SMILES | effect on Aβ42 aggregation of linker variants of bexarotene [1] | also measured
most effective molecules within Set C |  | COc1ccc(-c2ccc3cc(C(=O)O)ccc3c2)cc1C12CC3CC(CC(C3)C1)C2 [Adapalene] |  | 
 | same effect | CC1(C)CC=C(C#Cc2ccccc2)c2cc(/C=C/c3ccc(C(=O)O)cc3)ccc21 [BMS493] |  | 
most effective molecules within Set C |  | CC1(C)CCC(C)(C)c2cc(C3(c4ccc5cc(C(=O)O)ccc5c4)SCCS3)ccc21 [MM11253] |  | 
 | increase in inhibitory activity | C/C(=C\c1ccc(C(=O)O)cc1)c1ccc2c(c1)C(C)(C)CCC2(C)C [TTNPB] | delayed the aggregation of Aβ42 to different extent | 
